Assay results as given in PubChem BioAssay AID1963441 (Molecular Pharmacology Branch, DTP, NCI, 2024).
pIC50: −log10 of the molar value.

Test system: NCI-H1876 complex spheroid growth, % test/control
Experiment: Anticancer human tumor NCI-H1876 cell line growth inhibition [Asc];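 also: compound exposure lasted 7 days starting three days after seeding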;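 as to viability, T/C: 100% = DMSO vehicle control wells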
Details: for pIC50: curve of first compound; for viability, T/C: stronger effect = lower value
Procedure: Multicellular complex tumor spheroid response to apoptosis pathway targeting inhibitors Alrizomadlin, Pelcitoclax, and Dasminapant in combination with a variety of drugs and investigational agents in selected tumor cell lines
The MDM2 inhibitor alrizomadlin, the Bcl-2/Bcl-xL inhibitor pelcitoclax, and the IAPs inhibitor dasminapant were evaluated both individually and in combination with standard of care and investigational anticancer small molecules within a complex spheroid model of solid tumors. . Complex spheroids include a stromal component modeled by human endothelial cells (HUVEC) and fibroblasts modeled by human mesenchymal stem cells (MSCs). The concentration ranges selected for each drug and investigational agent were based upon clinically achievable concentrations if the clinical Cmax of the agent was known.
Compounds. The drugs and investigational agents: alrizomadlin (APG-115; NSC831270), pelcitoclax (APG-1252; NSC835773), dasminapant (APG-1387;NSC834197), TAK-243 (NSC785004), copanlisib (NSC809693), olaparib (NSC753686), talazoparib (NSC767125), cobimetinib (NSC 768068), eltanexor (KPT-8602, NSC 794443), abemaciclib (NSC 768073), sotorasib (NSC818433), adagrasib (NSC 831453), MRTX-1133 (NSC 836407), Iadademestat (ORY1001, NSC 806812), and RMC-4630 (NSC839698), were obtained from the NCI Developmental Therapeutics Program Chemical Repository. The FDA-approved anticancer drug set is available from the Developmental Therapeutics Program at https://dtp.cancer.gov/organization/dscb/obtaining/available plates.htm. […] The stock solutions were prepared in dimethyl sulfoxide (DMSO, Sigma-Aldrich, St. Louis, MO, cat. D2650) at 800-fold the tested concentration and stored at -70 degrees C prior to their use. All drugs and investigational agents were tested over a range starting from a high concentration at or near the clinical Cmax and decreasing in half-log increments. If the clinical Cmax for an agent had not been determined, the highest concentration tested was 10 microM.
The patient-derived cancer (PDC) cell lines include five colon adenocarcinomas: 186277-243-T-J2-PDC, 616215-338-R-J1-PDC, 439559-082-T-J2-PDC, 463943-066-T-J2-PDC, and 519858-162-T-J1-PDC; three pancreatic carcinomas: 323965-272-R-J2-PDC, 521955-158-R6-J3-PDC, and 521955-158-R2-J5-PDC; two uterine sarcomas: 327498-152-R-J2-PDC and 993429-296-R-J1-PDC; two rhabdomyosarcomas: 755483-174-R-J1-PDC and 772245-204-R-J1-PDC; two soft tissue sarcomas: 126254-015-R-J1-PDC and 494315-158-R-J1-PDC; two malignant fibrous histiocytomas: 317291-083-R-J1-PDC and 596521-263-R-J1-PDC; two breast carcinomas: 171881-019-R-J1-PDC and 885512-296-R-J2-PDC; and one ovarian carcinoma: 6556581-035-R-J-PDC were obtained from the NCI PDMR, (https://pdmr.cancer.gov). The established cell lines HSSY-2 synovial sarcoma (RRID:CVCL 8719), SYO-1 synovial sarcoma (RRID:CVCL_7146), MPNST malignant peripheral neural sheath tumor were obtained from the Sloan Kettering Institute. The following established cell lines were purchased from the American Type Culture Collection (ATCC, Manassas, VA), Sor the received from the NCI repository:, PANC-1 pancreatic carcinoma (CRL-1469, RRID:CVCL_0480), OVCAR-5 ovarian carcinoma (RRID:CVCL_1628), OVCAR-8 ovarian carcinoma (RRID:CVCL_1629), , MCF-7 breast carcinoma (CRL-12584, RRID:CVCL_0031), MDA-MB-231 breast carcinoma (CRL-12532, RRID:CVCL_0062), NCI-H1876 small cell lung carcinoma (CRL-5902, RRID:CVCL_1503), NCI-H510A small cell lung carcinoma (HTB-184, RRID:CVCL_1565), NCI-H1417 (CRL-5869, RRID:CVCL_1469), and NCI-H196 small cell lung carcinoma (CRL-5823, RRID:CVCL_1509). Dr. Peter Houghton (Greehey Children's Cancer Research Institute, University of Texas Health Science Center, San Antonio, TX) provided Rh-18 rhabdomyosarcoma (RRID:CVCL_1659). Pooled donor human umbilical vein endothelial cells (HUVEC, Lonza, cat. CC-2519) and human mesenchymal stem cells (hMSC, Lonza, cat. PT-2501) were purchased from Lonza (Walkersville, MD).
Cell Culture. […]

Q: Which results are given for COc1c(OCCCN2CCOCC2)ccc2c3n(c(=NC(=O)c4cnc(N)nc4)nc12)CCN3 + Cc1c(S(C)(=O)=O)c(-c2cc(F)cc(N3CCN(c4ccc(NS(=O)(=O)c5ccc(NC(CCN6CCC(C(=O)OCCCP(=O)(O)O)CC6)CSc6ccccc6)c(S(=O)(=O)C(F)(F)F)c5)cc4)CC3)c2)c(-c2ccc(Cl)cc2)n1C(C)C?
A: pIC50 (second compound 0.0316 µM): 6.61; pIC50 (second compound 0.1 µM): 6.65; pIC50 (second compound 0.316 µM): 6.68; pIC50 (second compound 1 µM): 6.83; pIC50 (second compound 3.16 µM): 6.93; pIC50 (second compound 10 µM): 6.99; viability, T/C (second compound 0.0316 µM, first compound 0.00316 µM): 94.3%; viability, T/C (second compound 0.0316 µM, first compound 0.01 µM): 88%; viability, T/C (second compound 0.0316 µM, first compound 0.0316 µM): 91.3%; viability, T/C (second compound 0.0316 µM, first compound 0.1 µM): 62.4%; viability, T/C (second compound 0.0316 µM, first compound 0.316 µM): 49.3%; viability, T/C (second compound 0.0316 µM, first compound 1 µM): 35.9%; viability, T/C (second compound 0.1 µM, first compound 0.00316 µM): 93.2%; viability, T/C (second compound 0.1 µM, first compound 0.01 µM): 88%; viability, T/C (second compound 0.1 µM, first compound 0.0316 µM): 88.2%; viability, T/C (second compound 0.1 µM, first compound 0.1 µM): 63.2%; viability, T/C (second compound 0.1 µM, first compound 0.316 µM): 45.4%; viability, T/C (second compound 0.1 µM, first compound 1 µM): 29.6%; viability, T/C (second compound 0.316 µM, first compound 0.00316 µM): 94.3%; viability, T/C (second compound 0.316 µM, first compound 0.01 µM): 94.4%; viability, T/C (second compound 0.316 µM, first compound 0.0316 µM): 87.6%; viability, T/C (second compound 0.316 µM, first compound 0.1 µM): 62.2%; viability, T/C (second compound 0.316 µM, first compound 0.316 µM): 43.2%; viability, T/C (second compound 0.316 µM, first compound 1 µM): 20.1%; viability, T/C (second compound 1 µM, first compound 0.00316 µM): 98.5%; viability, T/C (second compound 1 µM, first compound 0.01 µM): 94.7%; viability, T/C (second compound 1 µM, first compound 0.0316 µM): 82.5%; viability, T/C (second compound 1 µM, first compound 0.1 µM): 57.3%; viability, T/C (second compound 1 µM, first compound 0.316 µM): 35%; viability, T/C (second compound 1 µM, first compound 1 µM): 18.7%; viability, T/C (second compound 3.16 µM, first compound 0.00316 µM): 101%; viability, T/C (second compound 3.16 µM, first compound 0.01 µM): 84.7%; viability, T/C (second compound 3.16 µM, first compound 0.0316 µM): 77.9%; viability, T/C (second compound 3.16 µM, first compound 0.1 µM): 52.8%; viability, T/C (second compound 3.16 µM, first compound 0.316 µM): 29.2%; viability, T/C (second compound 3.16 µM, first compound 1 µM): 10.7%; viability, T/C (second compound 10 µM, first compound 0.00316 µM): 96.7%; viability, T/C (second compound 10 µM, first compound 0.01 µM): 90.3%; viability, T/C (second compound 10 µM, first compound 0.0316 µM): 74.5%; viability, T/C (second compound 10 µM, first compound 0.1 µM): 48.4%; viability, T/C (second compound 10 µM, first compound 0.316 µM): 28.3%; viability, T/C (second compound 10 µM, first compound 1 µM): 8.91%
